Experiments:
Format in all cases: in vivo, human
[1] = Weight loss trials in one subject (first to fifth and further trials, Examples 4-9); conditions: for weight lost during the trial: two months (61 days)
From the text: The therapeutic efficacy of a composition in accordance with the present invention has been tested herein.
These trials were not undertaken to lose weight as quickly as possible but rather they were undertaken with the recommendation by doctors to the subject(s) not to lose weight too quickly and to eat potassium rich foods, especially at night, instead of junk food.
As such, the aim of these trials was to have the subjects lose weight and stop the cravings for junk food with the aid of the compositions of this invention and use the enhanced energy and stimulation supplied from the compositions to change eating habits away from junk food thereby facilitating weight loss.
During a first trial, a subject was administered 300 mg of cesium chloride once per day in a glass of water every morning. The first trial lasted two months (61 days) and the subject (100 kg) lost ten kilograms during this time period, as follows:
In a second trial, the subject was administered 120 mg of lithium carbonate once per day with a glass of water every morning for two months (59 days). The subject reported after two weeks the stress of trying to diminish junk food intake was reduced.
In a third trial, the subject was administered 40 mg of lithium carbonate with a glass of water every morning for two months. The subject reported that the most difficult aspect was to stop the craving for junk food in the evening and the late afternoon.
In a fourth trial, the subject was administered 300 mg of rubidium chloride once per once day in a glass of water in the morning. This trial lasted two months (61 days), and the subject lost ten kilograms during this time period. The most difficult aspect reported was the urge to eat junk food for dinner and the cravings in the evening, which contributed to poor weight loss at the beginning of the trial (an option for people who cannot stop eating junk food at night would be to split the dosage and take half in the morning and half late in the afternoon or increase the dosage to 200 mg in the morning and 200 mg in the late afternoon).
In a fifth trial, the subject was administered 150 mg of rubidium chloride, 150 mg cesium chloride, and 40 mg of lithium carbonate once per day together in a glass of water in the morning. This trial lasted two months (61 days) and the subject lost ten kilograms during this time period. The most difficult aspect reported by the subject was the craving for junk food for dinner or late in the afternoon. This contributed to the little weight loss early in the study.
In further trials, the subject was administered lithium salts—lithium orotate, lithium aspartate, and lithium citrate (40 mg) with a glass of water in the morning. The subject reported similar cravings as noted above.

[2] = Blind trial with two subjects (rubidium chloride vs powdered sugar placebo), Example 10; conditions: rubidium chloride 300 mg once per day
Description: In a blind trial with two subjects, a subject (66 kg) was administered 300 mg of rubidium chloride once per day in a glass of water in the morning for two months (61 days). The second subject was a person (98 kg) who was administered a placebo of powdered sugar once per day in a glass of water in the morning during the same two months.
The most difficult aspect reported by the subject was to stop eating junk food for dinner and to stop the craving for junk food in the evening, which is believed to be the reason for little weight loss at the beginning of the trial (a proposed solution for people who cannot stop eating at night would be to split the dosage of the 300 mg of rubidium chloride and take half in the morning and half late in the afternoon).
The aim of this trial was to have the subject lose weight and stop the craving for junk food with the aid of the composition. The enhanced energy and stimulation supplied from the composition that was tested to determine if it prompted a change in eating habits away from junk food, thereby facilitated weight loss. Both subjects stated there was a higher craving for junk food for them in the afternoon and evening.
The trial lasted two months and the subject lost no weight and found the powdered sugar caused no stimulation, while the subject lost 6.5 kilograms during this time period, as follows: […]

[3] = Example 1: alkali metal composition in water taken daily by a 100 kg person for two months; conditions: 300 mg in water, each over another two-month period
Description: A 100 kg person was administered a pharmaceutical composition of the invention. Cesium chloride ([…]), rubidium chloride ([…]) and lithium aspartate (40 milligrams) together were dissolved in one glass of water and ingested in the morning daily over a two month period.

[4] = further trials, lithium salt 40 mg in the morning
[5] = further trials, lithium salt 40 mg in the morning, after two weeks
[6] = further trials, lithium salt 40 mg with a glass of water in the morning

SMILES: N[C@@H](CC(=O)[O-])C(=O)[O-].[Li+].[Li+] [lithium aspartate]
- feeling of stimulation (subject report) [1, 4]: not the feeling of stimulation as in the first and fourth trials
- stress of trying to diminish junk food intake (subject report) [1, 5]: decreased
- weight loss (in words) [1, 6]: Weight loss was recorded

SMILES: [Cl-].[Rb+] [rubidium chloride]
- Weight ([1]; fourth trial, rubidium chloride 300 mg once per day, day 1-10): 102 kg
- Weight ([1]; fourth trial, rubidium chloride 300 mg once per day, day 11-15): 101 kg
- Weight ([1]; fourth trial, rubidium chloride 300 mg once per day, day 16-23): 100 kg
- Weight ([1]; fourth trial, rubidium chloride 300 mg once per day, day 24-29): 99 kg
- Weight ([1]; fourth trial, rubidium chloride 300 mg once per day, day 30-35): 98 kg
- Weight ([1]; fourth trial, rubidium chloride 300 mg once per day, day 36-40): 97 kg
- Weight ([1]; fourth trial, rubidium chloride 300 mg once per day, day 41-45): 96 kg
- Weight ([1]; fourth trial, rubidium chloride 300 mg once per day, day 46-50): 95 kg
- Weight ([1]; fourth trial, rubidium chloride 300 mg once per day, day 51-54): 94 kg
- Weight ([1]; fourth trial, rubidium chloride 300 mg once per day, day 55-59): 93 kg
- Weight ([1]; fourth trial, rubidium chloride 300 mg once per day, day 60-61): 92 kg
- weight lost during the trial ([1]; fourth trial, rubidium chloride 300 mg once per day): ten
- weight lost during the trial ([2]; subject (66 kg), two months (61 days)): 6.5 kilograms
- craving for junk food (subject report) ([2]; subject): less craving for junk food than normal even after the first day
- energy and activity during the day (subject report) ([2]; subject): much more energy than before
- stimulation from the medication (subject report) ([2]; subject): very, very strong
- Weight ([2]; subject, day 1-5): 66 kg
- Weight ([2]; subject, day 6-9): 65.5 kg
- Weight ([2]; subject, day 10-12): 65 kg
- Weight ([2]; subject, day 13-18): 64 kg
- Weight ([2]; subject, day 19-28): 63 kg
- Weight ([2]; subject, day 29-30): 64 kg
- Weight ([2]; subject, day 31-32): 63.5 kg
- Weight ([2]; subject, day 33-34): 63 kg
- Weight ([2]; subject, day 35-43): 62 kg
- Weight ([2]; subject, day 44-51): 61 kg
- Weight ([2]; subject, day 52-55): 60.5 kg
- Weight ([2]; subject, day 56-59): 60 kg
- Weight ([2]; subject, day 60-61): 59.5 kg
- effect of the individual alkali metals ingested separately, compared with the combination [3]: worked as well and with the same sensation

SMILES: O=C([O-])CC(O)(CC(=O)[O-])C(=O)[O-].[Li+].[Li+].[Li+] [lithium citrate]
- feeling of stimulation (subject report) [1, 4]: not the feeling of stimulation as in the first and fourth trials
- stress of trying to diminish junk food intake (subject report) [1, 5]: decreased
- weight loss (in words) [1, 6]: Weight loss was recorded

SMILES: O=C([O-])[O-].[Li+].[Li+] [lithium carbonate]
- stress of trying to diminish junk food intake (subject report) ([1]; second trial, lithium carbonate 120 mg once per day, after two weeks): reduced
- Weight ([1]; second trial, lithium carbonate 120 mg once per day, day 1-14): 100 kg
- Weight ([1]; second trial, lithium carbonate 120 mg once per day, day 15-19): 99 kg
- Weight ([1]; second trial, lithium carbonate 120 mg once per day, day 20-27): 98 kg
- Weight ([1]; second trial, lithium carbonate 120 mg once per day, day 28-35): 97 kg
- Weight ([1]; second trial, lithium carbonate 120 mg once per day, day 36-39): 96 kg
- Weight ([1]; second trial, lithium carbonate 120 mg once per day, day 40-46): 95 kg
- Weight ([1]; second trial, lithium carbonate 120 mg once per day, day 47-52): 94 kg
- Weight ([1]; second trial, lithium carbonate 120 mg once per day, day 53-57): 93 kg
- Weight ([1]; second trial, lithium carbonate 120 mg once per day, day 58-59): 92 kg
- weight loss (in words) ([1]; second trial, lithium carbonate 120 mg once per day, two months (59 days)): Weight loss resulted
- feeling of stimulation (subject report) ([1]; third trial, lithium carbonate 40 mg every morning): not the feeling of stimulation as in the first trial
- stress of trying to reduce junk food intake (subject report) ([1]; third trial, lithium carbonate 40 mg every morning, after two weeks): reduced
- Weight ([1]; third trial, lithium carbonate 40 mg every morning, day 1-15): 100 kg
- Weight ([1]; third trial, lithium carbonate 40 mg every morning, day 16-25): 99 kg
- Weight ([1]; third trial, lithium carbonate 40 mg every morning, day 26-34): 98 kg
- Weight ([1]; third trial, lithium carbonate 40 mg every morning, day 35-41): 97 kg
- Weight ([1]; third trial, lithium carbonate 40 mg every morning, day 42-48): 96 kg
- Weight ([1]; third trial, lithium carbonate 40 mg every morning, day 49-53): 95 kg
- Weight ([1]; third trial, lithium carbonate 40 mg every morning, day 54-57): 94 kg
- Weight ([1]; third trial, lithium carbonate 40 mg every morning, day 58-60): 93 kg
- Weight ([1]; third trial, lithium carbonate 40 mg every morning, day 61): 92 kg
- weight loss (in words) ([1]; third trial, lithium carbonate 40 mg every morning, two months): Weight loss also resulted

SMILES: [Cl-].[Cs+] [cesium chloride]
- Weight ([1]; first trial, cesium chloride 300 mg once per day, day 1-9): 100 kg
- Weight ([1]; first trial, cesium chloride 300 mg once per day, day 10-13): 99 kg
- Weight ([1]; first trial, cesium chloride 300 mg once per day, day 14-15): 98 kg
- Weight ([1]; first trial, cesium chloride 300 mg once per day, day 16-23): 97 kg
- Weight ([1]; first trial, cesium chloride 300 mg once per day, day 24-34): 96 kg
- Weight ([1]; first trial, cesium chloride 300 mg once per day, day 35-41): 95 kg
- Weight ([1]; first trial, cesium chloride 300 mg once per day, day 42-47): 94 kg
- Weight ([1]; first trial, cesium chloride 300 mg once per day, day 48-52): 93 kg
- Weight ([1]; first trial, cesium chloride 300 mg once per day, day 53-55): 92 kg
- Weight ([1]; first trial, cesium chloride 300 mg once per day, day 56-58): 91 kg
- Weight ([1]; first trial, cesium chloride 300 mg once per day, day 59-61): 90 kg
- weight lost during the trial ([1]; first trial, cesium chloride 300 mg once per day, subject 100 kg): ten
- effect of the individual alkali metals ingested separately, compared with the combination [3]: worked as well and with the same sensation

SMILES: O=C([O-])c1cc(=O)[nH]c(=O)[nH]1.[Li+] [lithium orotate]
- feeling of stimulation (subject report) [1, 4]: not the feeling of stimulation as in the first and fourth trials
- stress of trying to diminish junk food intake (subject report) [1, 5]: decreased
- weight loss (in words) [1, 6]: Weight loss was recorded

From patent publication US8815304B2, “Compositions and methods for promoting appetite suppression using alkali metals” (Ashberry International Limited, priority 2010, dated 2014)
